The values below come from US20220213030A1, “AMINOGUANIDINE HYDRAZONES AS RETROMER STABILIZERS USEFUL FOR TREATING NEUROLOGICAL DISEASES” (OSPEDALE SAN RAFFAELE SRL, priority 2019, published 2022).

Data set [1] relates to Neuro2a cells transfected with G93A plasmids. The experiment in a line: LDH-Glo cytotoxicity assay in G93A-transfected Neuro2a. It is filed as cell-based, mouse. Particulars: 10 μM. On the procedure: We next assayed cytotoxicity by measuring lactate dehydrogenase (LDH) release with a LDH-Glo™ cytotoxicity assay. Cells were treated with plasmids encoding G93A and the Sh56-RNAi sequence with or without compound 2a, while supernatants were used to measure LDH contents. Overexpression of G93A increased the release of LDH by Neuro2a cells, when compared with cells transfected with LacZ-encoding plasmids or with LacZ+Sh56 plasmids (FIG. 3E). […] On the other hand, LDH release increased when cells received G93A plasmids along with Sh56 plasmids.
LDH cytotoxicity was run on 96 well plates using LDH-Glo™ Cytotoxicity Assay (Promega). Briefly, Neuro2a cells were transfected with plasmids encoding pCMV-LacZ; pcDNA3.1(+)SOD1G93A with or without VPS35 short interfering plasmids (Sh56) or compound 2a (10 μM). After 48 hours, 5 μl of supernatants were 100 fold diluted in LDH storage buffer (Tris-HCl 200 mM, 10% Glycerol, 1% BSA, Sigma-Aldrich) and used to determine LDH, according to manufacturer's recommendations. Maximum LDH Release Control was obtained lysing untreated Neuro2a cells with 2 μL of 10% Triton X-100 (Sigma-Aldrich). In each experiment we calculated % Cytotoxicity=(Exp.LDH Release-Medium Background)/(Max LDH Release Control-Medium Background), and we run parallel positive controls treating cells with 200 μM H2O2.

Data set [2] relates to Vps35, Vps26 and Vps29 mRNA. The experiment in a line: Real time PCR of CRC genes in Neuro2a. As to conditions: 10 μM, 48 hours. Type of data set: cell-based, mouse. On the procedure:
Compound 2a increases the stability of the retromer complex in vitro. We further validated this concept by measuring VPS35 degradation rates by a cycloheximide (CHX) chase assay. Neuro2a cells received vehicle or lead 2a (10 μM) for 24 hours, then CHX was added to the medium, and VPS35 levels were measured by western blot. […] As is the case with R55 (Mecozzi, Berman et al. 2014), compound 2a should not influence the transcription levels of CRC genes in Neuro2a cells.
Lumbar spinal tracts dissected from saline perfused mice or Neuro2a cells were lysed to extract total RNAs using the RNeasy Mini Kit (Qiagen) according to the manufacturer's recommendations, including DNase (Promega) digestion. We synthetized the cDNA using ThermoScript RT-PCR System (Invitrogen) and Random Hexamer (Invitrogen), according to the manufacturer's instructions. The LightCycler 480 System (Roche) and LightCycler 480 SYBR Green I Master Mix (Roche) were used for real-time PCR experiments. Normalization was obtained using the housekeeping gene Histone H3
(H3 F: 5′-[…]-3′ H3 R: 5′-[…]-3′). The following specific primers were used for gene expression analysis: […]
(Real-time PCR tracks product formation cycle by cycle.)

Data set [3] has as its system G93A mice. The data set can be described thus: Histopathology of sciatic nerves of G93A mice. Type of data set: in vivo, mouse. As to conditions: 10 mg/kg daily, day 100. The source says:
We next performed histopathological analysis of sciatic nerves from WT control and G93A mice receiving compound 2a or vehicle. […] Using Luxol Fast Blue (LFB) staining, which binds lipoproteins of the myelin sheath, we analyzed myelination in sagittal sections of these nerves. […] Therefore, we observed a reduction of fibers degeneration and demyelination in sciatic nerves of G93A mice treated with compound 2a.
Comparative studies on sciatic nerves were done on tissues removed upon saline perfusion and rapidly fixed with 2% glutaraldehyde in 0.12 mol/L phosphate buffer, post fixed with 1% osmium tetroxide, and embedded in Epon (Fluka). Semi-thin sections (1 μm thick) were stained with toluidine blue and examined by light microscopy (Olympus BX51). Digitized not overlapping semi-thin section images from corresponding levels of the sciatic nerve were obtained with a digital camera (Leica DFC300F) using a 40X objective. Quantifications were done on at least 5 acquired images from each mouse. The numbers of degenerating nerve fibers were quantified using ImageJ software (National Institutes of Health, Bethesda, Md.).

Data set [4] deals with VPS26b. The experiment in a line: VPS26b western blot in spinal cord extracts of G93A mice. Type of data set: in vivo, mouse. As to conditions: 10 mg/kg, day 100. The protocol:
Lumbar spinal cords were dissected from saline perfused mice and rapidly homogenized in the following lysis buffer: Tris-HCl 10 mM pH 8, EDTA pH 8 1 mM, NaCl 100 mM, NP40 1% and protease inhibitor cocktail (Sigma). Protein extracts were obtained using a tight-fitting glass Potter tissue grinder (1 ml; Wheaton) and then sonicated at a frequency of 20 kHz (10 times-1s). Protein lysates from cells cultures were obtained from plates receiving PBS1× washing and subsequently the lysis buffer followed by sonication. Protein concentrations were measured by BCA protein assay kit (Thermofisher) according to the manufacturer's recommendations. Ten μg of protein extract was loaded on 10% Mini-PROTEAN TGX Stain-Free precast gels for PAGE (Bio-Rad). Gel electrophoresis was performed at 100 V for 2 hours. Gels were transferred on Immobilon®-P PVDF membrane according to the manufacturer's instructions (Millipore). Blots were blocked in 5% BSA in Tris buffered saline plus 0.1% Tween-20 (TBS-T) for 1 hour before receiving primary antibodies: goat α-VPS35 1:800 (ab10099, Abcam); rabbit α-VPS26b 1:1000 (15915-1-AP, ProteinTech); rabbit α-VPS29 1:1000 (ab236796 Abcam); mouse α-βActin 1:25000 (Sigma); mouse α-Golgin97 1:1000 (Invitrogen); mouse α-Ubiquitin 1:500 (Merk) overnight at 4° C. on shaker. […] Quantifications were done using the Image Lab 6.0.1 software (Bio-Rad).

Data set [5] has as its target VPS35 (Mus musculus, UniProt Q9EQH3+Q9QZ88). The experiment in a line: VPS35 levels in spinal cord extracts of C57BL6J mice by western blot. Type of data set: in vivo. The arrangement: Lumbar spinal cords were dissected from saline perfused mice and rapidly homogenized; from tissue; host or cells: lumbar spinal cord of mice. Particulars: 10 mg/kg daily intraperitoneal for 7 days. The protocol:
We next asked whether the compound 2a can cross the blood brain barrier (BBB) of the brain. We run a pharmacokinetic assay on C57BL6J mice that received daily intraperitoneal injections of compound 2a (10 mg/Kg/day). Mice were sacrificed after 1, 7, 15 and 30 days saline perfused to avoid the CNS contamination of compounds contained in blood circulation and brains used for the determination of compound 2a levels by mass spectrometry. […] We next investigated in vivo if the retromer stabilization occurs in response to Compound 2a treatment. We intraperitoneally injected R55 and Compound 2a in adult C57BL6J mice as above described. After one week, mice were sacrificed, proteins extracts were assayed by western blot.
Lumbar spinal cords were dissected from saline perfused mice and rapidly homogenized in the following lysis buffer: Tris-HCl 10 mM pH 8, EDTA pH 8 1 mM, NaCl 100 mM, NP40 1% and protease inhibitor cocktail (Sigma). Protein extracts were obtained using a tight-fitting glass Potter tissue grinder (1 ml; Wheaton) and then sonicated at a frequency of 20 kHz (10 times-1s). […] Protein concentrations were measured by BCA protein assay kit (Thermofisher) according to the manufacturer's recommendations. […] Quantifications were done using the Image Lab 6.0.1 software (Bio-Rad).

Molecules are shown by their SMILES.

As for `N=C(N)NN=Cc1cccc(C=NNC(=N)N)c1` [Compound 2a, 1,3-Bis-amino guanidine phenyl hydrazone], in data set [1] (cells transfected with G93A plasmids and Sh56 plasmids), the LDH release entry was “high release of LDH was observed”. Further, in data set [1] (cells transfected with G93A plasmids, 48 hours), the LDH release entry was “significantly reduced LDH release”. Further, the “mRNAs levels of Vps35, Vps26 and Vps29” value in data set [2] is reported as “did not change”. In data set [3], the “degenerating peripheral nerve fibers in sciatic nerves” value is “significant protection of peripheral nerve fibers”; the “demyelination (Luxol Fast Blue staining)” value is “substantial attenuation of the demyelination process”; the “myelin integrity (MBP and NF-M labelling)” value is reported as “preserved the integrity of myelin”. Besides, the “VPS26b levels in SC extracts (WB)” value in data set [4] was “increase VPS35 and VPS26b levels”. For the same compound, in data set [5], the “VPS35 levels in SC extracts (ratio versus vehicle-treated mice)” value is reported as “≈ 1.7”.
